Read-outs that look alike come from different tables or passages of the source. Starred links: 1 amine or outer side, 2 acyl side, 3 side chain; linkers in the order of their positions; H or OH if unused. Non-standard residues stand in square brackets, D forms with d. Residues, ends and D or L forms follow the SMILES beside them. Groups on a side chain read outwards from the residue. *: point of attachment. C20 diacid = O=C(O)CCCCCCCCCCCCCCCCCCC(=O)*; γGlu = O=C(O)[C@H](CCC(=O)[*:2])N[*:1]; Nle = CCCC[C@H](N)C(=O)O; AEEA = NCCOCCOCC(=O)O
Tests used:
hCRHR2 = biological target: T1, hCRHR2 (Homo sapiens, UniProt Q13324); assay: HTRF cAMP assay, determination of hCRHR2 potency (peptide libraries 5 conc., purified peptides 11 conc.); format: cell-based; settings: for Selectivity ratio (hCRHR1/ hCRHR2): hCRHR1-EC50/hCRHR2-EC50
T1 sequence (Q13324 1-411): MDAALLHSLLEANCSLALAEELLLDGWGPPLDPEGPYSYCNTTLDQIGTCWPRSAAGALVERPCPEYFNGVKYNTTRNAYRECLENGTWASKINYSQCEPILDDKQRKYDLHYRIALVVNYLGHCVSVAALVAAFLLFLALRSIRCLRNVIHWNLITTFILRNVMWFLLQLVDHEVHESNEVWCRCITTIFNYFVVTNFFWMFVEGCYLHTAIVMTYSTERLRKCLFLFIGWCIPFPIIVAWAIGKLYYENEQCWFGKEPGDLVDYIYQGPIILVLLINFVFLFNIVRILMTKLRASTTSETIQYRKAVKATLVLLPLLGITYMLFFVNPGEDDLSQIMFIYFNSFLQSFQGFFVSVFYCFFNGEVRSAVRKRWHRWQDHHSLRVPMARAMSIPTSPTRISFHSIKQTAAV
Procedure, shortened: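 EC50 derived by variable-slope sigmoid regression of FRET-based cAMP data; cellular cAMP displaced d2-labelled tracer from cryptate anti-cAMP antibody. Stable human CRHR2 CHO-K1 suspension cells, revived from frozen stocks just before the run.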

hCRHR1 = biological target: T2, hCRHR1 (Homo sapiens, UniProt P34998); assay: HTRF cAMP assay, determination of hCRHR1 potency (peptide libraries 5 conc., purified peptides 11 conc.); format: cell-based
T2 sequence (P34998 24-415): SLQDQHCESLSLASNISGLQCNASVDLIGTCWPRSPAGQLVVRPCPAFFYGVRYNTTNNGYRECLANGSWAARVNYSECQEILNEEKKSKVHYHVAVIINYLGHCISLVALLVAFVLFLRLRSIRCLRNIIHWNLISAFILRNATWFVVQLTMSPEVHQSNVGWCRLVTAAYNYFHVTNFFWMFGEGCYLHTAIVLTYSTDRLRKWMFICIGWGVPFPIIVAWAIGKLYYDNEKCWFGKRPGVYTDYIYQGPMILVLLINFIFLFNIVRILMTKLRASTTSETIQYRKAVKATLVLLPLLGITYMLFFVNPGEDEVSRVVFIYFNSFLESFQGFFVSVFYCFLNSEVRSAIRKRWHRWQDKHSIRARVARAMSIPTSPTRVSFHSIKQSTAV
Procedure, shortened: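 Cellular cAMP was read by time-resolved FRET between d2-labelled cAMP and cryptate anti-cAMP antibody. The cells were freshly thawed suspension CHO-K1 cells stably expressing human CRHR1.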

[1] = Thioflavin T fibril formation assay of purified peptides; format: physicochemical; settings: pH 7.5, ThT assay
Method: Thioflavin T fibril formation assay: Peptides were dissolved as 267 µM in 50 mM phosphate buffer pH 7.5 for 2 h at room temperature on a rocking table. The samples were then divided into three replicates of 80 µl/well and mixed with 2 µl/well Thioflavin T (ThT)to a final concentration of 4 µM ThT in a black 384 well microplate with a clear bottom (Greiner #781096). The plate was inserted in a CLARIOstar Plus microplate reader (BMG Labtech) and fibril formation was measured as an increase in fluorescence emission at 480 nm (excitation at 450 nm) during 96 h at 40°C with cycles of 5 min rest and 5 min linearshaking at700 rpm.
Compounds were dissolved to 200 µM (ca 1.0 mg/ml) in 50 mM phosphate buffer with preparation and ThT assay performed as described in the "General procedure for determination of fibril formation of peptides." above. Furthermore, samples were adjusted to pH values as indicated below. Additional co-formulations of compounds with semaglutide were prepared by dissolving compounds to 200 µM in commercially available semaglutide drug product (Ozempic®); these co-formulations were adjusted to pH 7.4.

[2] = Chemical stability of purified peptides (RP-UHPLC main peak purity loss); format: physicochemical; settings: pH 7.5, 40°C
Method: Chemical stability was tested at a concentration of approximately of 1.0 mg/ml peptide in the following vehicles: 50 mM phosphate buffer pH 7.5. Dissolved samples were incubated for at least 2 h at room temperature on a rocking table. The main peak purity at time zero (T0) was determined using reversed phase chromatography. The samples were incubated at 40°C for 14 days (T14) and 28 days (T28). The samples were analyzed with reversed phase chromatography and size exclusion chromatography.
Reversed Phase chromatography was performed on a Thermo Dionex Ultimate UHPLC system with UV detection at 215 nm) and equipped with a Kinetex column (1.7 µm, C8, 100 Å, 150 x 2.1 mm (00F-4499-AN)). Analysis was performed by gradient elution with buffer A (0.1% TFA in 95:5 H2O:acetonitrile) and buffer B (0.1% TFA in 5:95 H2O: acetonitrile) at a column temperature of 50 °C (gradient used 25-55%B over 40 min. Flowrate was 0.5 mL/min. The main peak purity was determined from the integrated chromatogram as the area under the main peak relative to the total peak area. The purity loss was calculated as the difference between the T0 and T14 time point and/or as the difference between the T0 and T28 time point.
The chemical stability of selected peptides was evaluated at varying pH's at 40° C over 28 days. Samples were prepared and analysed as described in procedure with the addition of pH adjusting samples to the targets indicated below. As a comparator,r commercially available semaglutide drug product (Ozempic®, Novo Nordisk) was included in the sample set.

[3] = pH 7.5
[4] = purified peptides, CHO-K1 cells stably expressing hCRHR2, cAMP HTRF, read-out: hCRHR2 EC50
[5] = purified peptides, CHO-K1 cells stably expressing hCRHR1, cAMP HTRF, read-out: hCRHR1 EC50

Row | Selectivity ratio (hCRHR1/ hCRHR2) (hCRHR2) | EC50 (hCRHR2; [4]) | EC50 (hCRHR1; [5]) | Fibrillation (pH 7.5) [1] | Chemical stability at pH 7.5 after 14 days at 40°C (% degradation) ([2]; 14 days, first value of cell) | Chemical stability at pH 7.5 after 28 days at 40°C (% degradation) ([2]; 28 days, second value of cell) | Solubility pH 7.5, target conc. =10 mg/mL (measured mg/mL) [3] | Solubility pH 7.5, target conc. =5 mg/mL (measured mg/mL) [3] | EC50 (hCRHR2; Table 3, matched molecular pairs X^38 L vs Nle, peptide library of Example 4, read-out: hCRHR2 pEC50 (converted)) | EC50 (hCRHR1; Table 3, matched molecular pairs X^38 L vs Nle, peptide library of Example 4, read-out: hCRHR1 pEC50 (converted)) | SMILES
1 | >1136 | 4.4 nM | > 5000 nM | No | -0.6% | -1.2% | 9.1 mg/mL | – | – | – | CC[C@H](C)[C@H](N)C(=O)N[C@H](C(=O)N[C@@H](CC(C)C)C(=O)N[C@@H](CO)C(=O)N[C@@H](CC(C)C)C(=O)N[C@@H](CC(=O)O)C(=O)N[C@H](C(=O)N1CCC[C@H]1C(=O)N[C@H](C(=O)NCC(=O)N[C@@H](CC(C)C)C(=O)N[C@@H](CC(C)C)C(=O)N[C@@H](CCC(N)=O)C(=O)N[C@H](C(=O)N[C@@H](CC(C)C)C(=O)N[C@@H](CC(C)C)C(=O)N[C@@H](CCC(=O)O)C(=O)N[C@@H](CCC(N)=O)C(=O)N[C@@H](C)C(=O)N[C@@H](CCCNC(=N)N)C(=O)N[C@@H](C)C(=O)N[C@@H](CCCNC(=N)N)C(=O)N[C@@H](C)C(=O)N[C@@H](C)C(=O)N[C@@H](CCCNC(=N)N)C(=O)N[C@@H](CCC(=O)O)C(=O)N[C@@H](CCC(N)=O)C(=O)N[C@@H](C)C(=O)N[C@@H](CCCCNC(=O)COCCOCCNC(=O)COCCOCCNC(=O)CC[C@H](NC(=O)CC[C@H](NC(=O)CCCCCCCCCCCCCCCCCCC(=O)O)C(=O)O)C(=O)O)C(=O)N[C@H](C(=O)N[C@@H](CC(N)=O)C(=O)N[C@@H](CC(C)C)C(=O)N[C@@H](CCC(=O)O)C(=O)N[C@H](C(=O)N[C@@H](CC(C)C)C(=O)N[C@@H](C)C(=O)N[C@@H](CCC(=O)O)C(=O)N[C@H](C(N)=O)C(C)C)[C@@H](C)CC)[C@@H](C)O)[C@@H](C)CC)[C@@H](C)CC)C(C)C)C(C)C [SEQ ID NO: 12] (H-IVLSLDVPIGLLQILLEQARARAAREQAK([AEEA-AEEA-γGlu-γGlu-C20 diacid])TNLEILAEV-NH2)
2 | >2778 | 1.8 nM | > 5000 nM | No | – | – | – | 0.016 mg/mL | – | – | CC[C@H](C)[C@H](N)C(=O)N[C@H](C(=O)N[C@@H](CC(C)C)C(=O)N[C@@H](CO)C(=O)N[C@@H](CC(C)C)C(=O)N[C@@H](CC(=O)O)C(=O)N[C@H](C(=O)N1CCC[C@H]1C(=O)N[C@H](C(=O)NCC(=O)N[C@@H](CC(C)C)C(=O)N[C@@H](CC(C)C)C(=O)N[C@@H](CCC(N)=O)C(=O)N[C@H](C(=O)N[C@@H](CC(C)C)C(=O)N[C@@H](CC(C)C)C(=O)N[C@@H](CCC(=O)O)C(=O)N[C@@H](CCC(N)=O)C(=O)N[C@@H](C)C(=O)N[C@@H](CCCNC(=N)N)C(=O)N[C@@H](C)C(=O)N[C@@H](CCCNC(=N)N)C(=O)N[C@@H](C)C(=O)N[C@@H](C)C(=O)N[C@@H](CCCNC(=N)N)C(=O)N[C@@H](CCC(=O)O)C(=O)N[C@@H](CCC(N)=O)C(=O)N[C@@H](C)C(=O)N[C@@H](CCCCNC(=O)COCCOCCNC(=O)COCCOCCNC(=O)CC[C@H](NC(=O)CC[C@H](NC(=O)CCCCCCCCCCCCCCCCCCC(=O)O)C(=O)O)C(=O)O)C(=O)N[C@H](C(=O)N[C@@H](CC(N)=O)C(=O)N[C@@H](C)C(=O)N[C@@H](CCCNC(=N)N)C(=O)N[C@H](C(=O)N[C@@H](CC(C)C)C(=O)N[C@@H](C)C(=O)N[C@@H](CCCNC(=N)N)C(=O)N[C@H](C(N)=O)C(C)C)[C@@H](C)CC)[C@@H](C)O)[C@@H](C)CC)[C@@H](C)CC)C(C)C)C(C)C [SEQ ID NO: 2] (H-IVLSLDVPIGLLQILLEQARARAAREQAK([AEEA-AEEA-γGlu-γGlu-C20 diacid])TNARILARV-NH2)
3 | – | – | – | – | – | – | – | – | 0.398 nM | 1000 nM | CCCC[C@H](NC(=O)[C@@H](NC(=O)[C@H](CCC(=O)O)NC(=O)[C@H](C)NC(=O)[C@H](CC(N)=O)NC(=O)[C@@H](NC(=O)[C@H](CCCCNC(=O)COCCOCCNC(=O)COCCOCCNC(=O)CC[C@H](NC(=O)CC[C@H](NC(=O)CCCCCCCCCCCCCCCCCCC(=O)O)C(=O)O)C(=O)O)NC(=O)[C@H](C)NC(=O)[C@H](CCC(N)=O)NC(=O)[C@H](CCC(=O)O)NC(=O)[C@H](CCCNC(=N)N)NC(=O)[C@H](C)NC(=O)[C@H](C)NC(=O)[C@H](CCC(=O)O)NC(=O)[C@H](C)NC(=O)[C@H](CCCNC(=N)N)NC(=O)[C@H](C)NC(=O)[C@H](CCC(N)=O)NC(=O)[C@H](CCC(=O)O)NC(=O)[C@H](CC(C)C)NC(=O)[C@H](CC(C)C)NC(=O)[C@@H](NC(=O)[C@H](CCC(N)=O)NC(=O)[C@H](CC(C)C)NC(=O)[C@H](CC(C)C)NC(=O)CNC(=O)[C@@H](NC(=O)[C@@H]1CCCN1C(=O)[C@@H](NC(=O)[C@H](CC(=O)O)NC(=O)[C@H](CC(C)C)NC(=O)[C@H](CO)NC(=O)[C@H](CC(C)C)NC(=O)[C@@H](NC(=O)[C@@H](N)[C@@H](C)CC)C(C)C)C(C)C)[C@@H](C)CC)[C@@H](C)CC)[C@@H](C)O)[C@@H](C)CC)C(=O)N[C@@H](C)C(=O)N[C@@H](CCC(=O)O)C(=O)N[C@H](C(N)=O)[C@@H](C)CC [SEQ ID NO: 24] (H-IVLSLDVPIGLLQILLEQARAEAAREQAK([AEEA-AEEA-γGlu-γGlu-C20 diacid])TNAEI[Nle]AEI-NH2)

— EP4810052A2, “HCRHR2 SELECTIVE POLYPEPTIDES” (Gubra A/S, priority 2023, dated 2026)
